One experiment deals with E. coli JM109 [pSB311]. Briefly: dual culture bioluminescence assay, reading before octanal substrate addition. The class given is cell-based. The following applies: E. coli/S. aureus co-culture, 5 hours at 37° C., FIG. 1. The method, then:
E. coli JM109 [pSB311] has a plasmid that contains the entire lux gene cassette (luxCDABE) from Photorhabdus luminescens. In this organism bioluminescence initiation is independent on the addition of aldehyde substrate.
E. coli JM109 was grown overnight at 37° C. in Brain Heart Infusion (BHI) broth to give approximately 1×10^9 CFU/ml.
(§1) S. aureus RN4220 [PKF1] was grown overnight at 37° C. in Brain Heart Infusion (BHI) broth containing 10 ug/ml chloramphenicol to give approximately 1×10^9 CFU/ml. The overnight cultures were diluted to give 1×10^6 CFU/ml for E. coli and 1×10^7 CFU/ml for S. aureus and 25 μl of each organism was added to each well.
(§2) Test compounds were serially diluted in BHI and 50 μl was added to each well of a 96 well microtitre plate.
(§3) The plate was incubated for 5 hours at 37° C. and bioluminescence from compound treated cells was compared with non-treated cells using a luminometer (Wallac LB96B) to give bioluminescence output for E. coli (no substrate addition).

The next experiment deals with S. aureus RN4220 [pKF1]. Briefly: dual culture bioluminescence assay, reading after octanal addition minus initial reading. The following applies: E. coli/S. aureus co-culture, 5 hours at 37° C., RLU after octanal minus initial reading, FIG. 3. The format is cell-based. The method, then:
S. aureus RN4220 [pKF1] has a plasmid that contains only luxAB genes so bioluminescence is dependent on the addition of aldehyde substrate. Chloramphenicol resistance is used as a selective marker for plasmid maintenance.
as §1, §2, §3
To monitor the effect of the antibiotics on S. aureus bioluminescence 50 μl of 0.01% (v/v) octanal substrate was added to each well and bioluminescence was measured immediately after substrate addition to each individual well (Total RLU's for both E. coli and S. aureus). To obtained RLU's for S. aureus the initial RLU reading was subtracted from the reading taken immediately following substrate addition.

Experimental findings from patent US20020172974A1, “Method of screening for antimicrobial compounds” (priority 1997, published 2002) are described below.

As for `CC1(C)S[C@@H]2[C@H](NC(=O)[C@H](N)c3ccc(O)cc3)C(=O)N2[C@H]1C(=O)O` [Amoxicillin], the “potency against E. coli (comparison in words)” value with E. coli JM109 [pSB311] (compared with mupirocin) is “more potent”. In addition, the “activity against S. aureus (in words)” value in the experiment on S. aureus RN4220 [pKF1] is reported as “potent activity”.

On to `C/C(=C\C(=O)OCCCCCCCCC(=O)O)C[C@@H]1OC[C@H](C[C@@H]2O[C@H]2[C@@H](C)[C@H](C)O)[C@@H](O)[C@H]1O` [mupirocin], for which the “concentrations required to inhibit bioluminescence” value in the experiment on E. coli JM109 [pSB311] (no substrate addition) was “greater than 64 μl/ml”. Besides, the “activity against S. aureus (in words)” value with S. aureus RN4220 [pKF1] was “potent activity”.
